Results as given in patent publication US20250049090A1, “A NUTRITIONAL SUPPLEMENT FOR IMPROVED GUT HEALTH” (Haleon US Holdings LLC, priority 2021, published 2025).

Columns and labels:
total bacteria = assay: In vitro gut model batch culture fermentation, FISH-FCM enumeration of total bacteria (Eub); assay type: cell-based, human faecal bacteria; settings: until 48 h, WD experiment; 'except' = not elevated
Method: (§1) In vitro gut model batch culture fermentations were run for 72 hours. Samples were collected for bacterial enumeration and organic acid production through fluorescent in situ hybridisation combined with flow cytometry and gas chromatography, respectively. Overall, the main findings were that the ZnC supplementation combined with WD increased in Bifidobacterium spp., and Clostridium histolyticum group but this finding was not shown in the vessels consisting of the ZnC components only. […] Optimising the dose and substrate availability is important to ensure homeostasis and prevent potential pathogenic bacterial growth. […]
(§2) A 750 μl sample was collected from each vessel at timepoints 0, 8, 24, 48 and 72 hours. […] The subsequent pellet was used for bacterial enumeration through fluorescence in situ hybridisation flow-cytometry (FISH-FCM) and 500 μl of supernatant used to assess organic acid production via gas chromatography. […]
(§3) All statistical results were analysed in Prism 8 version 8.4.0 (GraphPad Prism 8, San Diego, California, USA). The FISH-FCM and organic acid production were analysed using two-way mixed ANOVA to compare different test substrates and time points. […]

human gut microbiota = assay: In vitro gut model batch culture fermentation, organic acid production by gas chromatography; assay type: cell-based; settings: 'except' = not significantly elevated
Method: as §1, §2, §3

[1] = healthy volunteers under high stress or when diarrhoea was induced; cited from earlier work
[2] = ZnC supplementation 150 mg/day for 1 week; cited from earlier work

In the case of Zinc carnosine [ZnC], the “total bacteria counts elevated” value (total bacteria) is reported as “except”, the “propionate compared to baseline” value (human gut microbiota; 24, 48 and 72 h, WD experiment) is reported as “except” and the “acetate compared to baseline” value (human gut microbiota; 72 h, PHGG experiment) is reported as “except”. For the same substance, the intestinal barrier function [1] was “maintained or improved” and the “UC clinical outcomes and remission” value [2] was “improve”.
